Assay results taken from the supplement of paper PMC10307832.

Columns and labels:
Assay in all cases: relative viability (nuclei count vs DMSO), 5 days (fraction); higher = more cells survive
Omipalisib + Olaparib = compound: COc1ncc(-c2ccc3nccc(-c4ccnnc4)c3c2)cc1NS(=O)(=O)c1ccc(F)cc1F [Omipalisib] + O=C(c1cc(Cc2n[nH]c(=O)c3ccccc23)ccc1F)N1CCN(C(=O)C2CC2)CC1 [Olaparib] (partner 8 µM)
Method in brief: (§1)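 A single step with final 0.05% Triton X-100, 1% formaldehyde and 1 ug/ml Hoechst fixed the cells and stained nuclei 5 days after treatment. Lung cancer cell lines in 1536-well plates had been treated by pin tool the day after seeding with one drug alone or a fixed anchor-drug dose plus five library-drug doses (not always all listed) in √10 steps, and nuclei were counted on 4× images. Relative viability is the ratio of nuclei in treated wells to nuclei in vehicle wells, taken as the median of duplicate plates.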

Omipalisib + AZD7762 = compound: COc1ncc(-c2ccc3nccc(-c4ccnnc4)c3c2)cc1NS(=O)(=O)c1ccc(F)cc1F [Omipalisib] + NC(=O)Nc1cc(-c2cccc(F)c2)sc1C(=O)N[C@H]1CCCNC1 [AZD7762] (partner 0.2 µM)
Method in brief: as §1

Omipalisib + Dasatinib = compound: COc1ncc(-c2ccc3nccc(-c4ccnnc4)c3c2)cc1NS(=O)(=O)c1ccc(F)cc1F [Omipalisib] + Cc1nc(Nc2ncc(C(=O)Nc3c(C)cccc3Cl)s2)cc(N2CCN(CCO)CC2)n1 [Dasatinib] (partner 0.075 µM)
Method in brief: as §1

Omipalisib + Vorinostat = compound: COc1ncc(-c2ccc3nccc(-c4ccnnc4)c3c2)cc1NS(=O)(=O)c1ccc(F)cc1F [Omipalisib] + O=C(CCCCCCC(=O)Nc1ccccc1)NO [Vorinostat] (partner 1 µM)
Method in brief: as §1

Omipalisib + Phenformin = compound: COc1ncc(-c2ccc3nccc(-c4ccnnc4)c3c2)cc1NS(=O)(=O)c1ccc(F)cc1F [Omipalisib] + N=C(N)NC(=N)NCCc1ccccc1 [Phenformin] (partner 250 µM)
Method in brief: as §1

Omipalisib + Tozasertib = compound: COc1ncc(-c2ccc3nccc(-c4ccnnc4)c3c2)cc1NS(=O)(=O)c1ccc(F)cc1F [Omipalisib] + Cc1cc(Nc2cc(N3CCN(C)CC3)nc(Sc3ccc(NC(=O)C4CC4)cc3)n2)n[nH]1 [Tozasertib] (partner 0.1 µM)
Method in brief: as §1

Omipalisib + Pemetrexed = compound: COc1ncc(-c2ccc3nccc(-c4ccnnc4)c3c2)cc1NS(=O)(=O)c1ccc(F)cc1F [Omipalisib] + Nc1nc2[nH]cc(CCc3ccc(C(=O)N[C@@H](CCC(=O)O)C(=O)O)cc3)c2c(=O)[nH]1 [Pemetrexed] (partner 0.2 µM)
Method in brief: as §1

Omipalisib + OSI-027 = compound: COc1ncc(-c2ccc3nccc(-c4ccnnc4)c3c2)cc1NS(=O)(=O)c1ccc(F)cc1F [Omipalisib] + COc1cccc2cc(-c3nc([C@H]4CC[C@H](C(=O)O)CC4)n4ncnc(N)c34)[nH]c12 [OSI-027] (partner 0.5 µM)
Method in brief: as §1

Omipalisib + Decitabine = compound: COc1ncc(-c2ccc3nccc(-c4ccnnc4)c3c2)cc1NS(=O)(=O)c1ccc(F)cc1F [Omipalisib] + Nc1ncn([C@H]2C[C@H](O)[C@@H](CO)O2)c(=O)n1 [Decitabine] (partner 2 µM)
Method in brief: as §1

Omipalisib + Trametinib = compound: COc1ncc(-c2ccc3nccc(-c4ccnnc4)c3c2)cc1NS(=O)(=O)c1ccc(F)cc1F [Omipalisib] + CC(=O)Nc1cccc(-n2c(=O)n(C3CC3)c(=O)c3c(Nc4ccc(I)cc4F)n(C)c(=O)c(C)c32)c1 [Trametinib] (partner 0.02 µM)
Method in brief: as §1

Omipalisib + Luminespib = compound: COc1ncc(-c2ccc3nccc(-c4ccnnc4)c3c2)cc1NS(=O)(=O)c1ccc(F)cc1F [Omipalisib] + CCNC(=O)c1noc(-c2cc(C(C)C)c(O)cc2O)c1-c1ccc(CN2CCOCC2)cc1 [Luminespib] (partner 0.01 µM)
Method in brief: as §1

Omipalisib + Palbociclib = compound: COc1ncc(-c2ccc3nccc(-c4ccnnc4)c3c2)cc1NS(=O)(=O)c1ccc(F)cc1F [Omipalisib] + CC(=O)c1c(C)c2cnc(Nc3ccc(N4CCNCC4)cn3)nc2n(C2CCCC2)c1=O [Palbociclib] (partner 0.5 µM)
Method in brief: as §1

Omipalisib = compound: COc1ncc(-c2ccc3nccc(-c4ccnnc4)c3c2)cc1NS(=O)(=O)c1ccc(F)cc1F [Omipalisib]
Method in brief: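 For viability, nuclei in each treated well were divided by nuclei in vehicle wells and the median across plates was taken. Lung cancer cell lines in 1536-well plates were pinned with five library-drug doses (not always all listed) spaced by √10, cultured 5 days without medium change, and imaged at 4× after Hoechst staining, with plates passing only at control CV below 25% and at least one doubling.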

Omipalisib + Pictilisib = compound: COc1ncc(-c2ccc3nccc(-c4ccnnc4)c3c2)cc1NS(=O)(=O)c1ccc(F)cc1F [Omipalisib] + CS(=O)(=O)N1CCN(Cc2cc3nc(-c4cccc5[nH]ncc45)nc(N4CCOCC4)c3s2)CC1 [Pictilisib] (partner 1 µM)
Method in brief: as §1

Omipalisib + Lapatinib = compound: COc1ncc(-c2ccc3nccc(-c4ccnnc4)c3c2)cc1NS(=O)(=O)c1ccc(F)cc1F [Omipalisib] + CS(=O)(=O)CCNCc1ccc(-c2ccc3ncnc(Nc4ccc(OCc5cccc(F)c5)c(Cl)c4)c3c2)o1 [Lapatinib] (partner 2 µM)
Method in brief: as §1

Omipalisib + Bortezomib = compound: COc1ncc(-c2ccc3nccc(-c4ccnnc4)c3c2)cc1NS(=O)(=O)c1ccc(F)cc1F [Omipalisib] + CC(C)C[C@H](NC(=O)[C@H](Cc1ccccc1)NC(=O)c1cnccn1)B(O)O [Bortezomib] (partner 0.002 µM)
Method in brief: as §1

Omipalisib + Foretinib = compound: COc1ncc(-c2ccc3nccc(-c4ccnnc4)c3c2)cc1NS(=O)(=O)c1ccc(F)cc1F [Omipalisib] + COc1cc2c(Oc3ccc(NC(=O)C4(C(=O)Nc5ccc(F)cc5)CC4)cc3F)ccnc2cc1OCCCN1CCOCC1 [Foretinib] (partner 0.25 µM)
Method in brief: as §1

Omipalisib + Linsitinib = compound: COc1ncc(-c2ccc3nccc(-c4ccnnc4)c3c2)cc1NS(=O)(=O)c1ccc(F)cc1F [Omipalisib] + C[C@]1(O)C[C@@H](c2nc(-c3ccc4ccc(-c5ccccc5)nc4c3)c3c(N)nccn32)C1 [Linsitinib] (partner 1 µM)
Method in brief: as §1

Omipalisib + Crizotinib = compound: COc1ncc(-c2ccc3nccc(-c4ccnnc4)c3c2)cc1NS(=O)(=O)c1ccc(F)cc1F [Omipalisib] + C[C@@H](Oc1cc(-c2cnn(C3CCNCC3)c2)cnc1N)c1c(Cl)ccc(F)c1Cl [Crizotinib] (partner 1 µM)
Method in brief: as §1

Omipalisib + Navitoclax = compound: COc1ncc(-c2ccc3nccc(-c4ccnnc4)c3c2)cc1NS(=O)(=O)c1ccc(F)cc1F [Omipalisib] + CC1(C)CCC(c2ccc(Cl)cc2)=C(CN2CCN(c3ccc(C(=O)NS(=O)(=O)c4ccc(N[C@H](CCN5CCOCC5)CSc5ccccc5)c(S(=O)(=O)C(F)(F)F)c4)cc3)CC2)C1 [Navitoclax] (partner 0.5 µM)
Method in brief: as §1

Omipalisib + Alpelisib = compound: COc1ncc(-c2ccc3nccc(-c4ccnnc4)c3c2)cc1NS(=O)(=O)c1ccc(F)cc1F [Omipalisib] + Cc1nc(NC(=O)N2CCC[C@H]2C(N)=O)sc1-c1ccnc(C(C)(C)C(F)(F)F)c1 [Alpelisib] (partner 2 µM)
Method in brief: as §1

NCI-H522
relative viability (Omipalisib + Olaparib; first compound 0.0003 µM): 0.532
relative viability (Omipalisib + Olaparib; first compound 0.003 µM): 0.614
relative viability (Omipalisib + Olaparib; first compound 0.03 µM): 0.505
relative viability (Omipalisib + AZD7762; first compound 0.0003 µM): 0.652
relative viability (Omipalisib + AZD7762; first compound 0.003 µM): 0.58
relative viability (Omipalisib + AZD7762; first compound 0.03 µM): 0.839
relative viability (Omipalisib + Dasatinib; first compound 0.0003 µM): 0.857
relative viability (Omipalisib + Dasatinib; first compound 0.003 µM): 0.745
relative viability (Omipalisib + Dasatinib; first compound 0.03 µM): 0.626
relative viability (Omipalisib + Vorinostat; first compound 0.0003 µM): 0.837
relative viability (Omipalisib + Vorinostat; first compound 0.003 µM): 0.766
relative viability (Omipalisib + Vorinostat; first compound 0.03 µM): 0.724
relative viability (Omipalisib + Phenformin; first compound 0.0003 µM): 0.604
relative viability (Omipalisib + Phenformin; first compound 0.003 µM): 0.559
relative viability (Omipalisib + Phenformin; first compound 0.03 µM): 0.583
relative viability (Omipalisib + Tozasertib; first compound 0.0003 µM): 0.515
relative viability (Omipalisib + Tozasertib; first compound 0.003 µM): 0.451
relative viability (Omipalisib + Tozasertib; first compound 0.03 µM): 0.438
relative viability (Omipalisib + Pemetrexed; first compound 0.0003 µM): 0.963
relative viability (Omipalisib + Pemetrexed; first compound 0.003 µM): 0.932
relative viability (Omipalisib + Pemetrexed; first compound 0.03 µM): 0.636
relative viability (Omipalisib + OSI-027; first compound 0.0003 µM): 0.69
relative viability (Omipalisib + OSI-027; first compound 0.003 µM): 0.641
relative viability (Omipalisib + OSI-027; first compound 0.03 µM): 0.531
relative viability (Omipalisib + Decitabine; first compound 0.0003 µM): 0.665
relative viability (Omipalisib + Decitabine; first compound 0.003 µM): 0.596
relative viability (Omipalisib + Decitabine; first compound 0.03 µM): 0.595
relative viability (Omipalisib + Trametinib; first compound 0.0003 µM): 0.746
relative viability (Omipalisib + Trametinib; first compound 0.003 µM): 0.604
relative viability (Omipalisib + Trametinib; first compound 0.03 µM): 0.443
relative viability (Omipalisib + Luminespib; first compound 0.0003 µM): 1.04
relative viability (Omipalisib + Luminespib; first compound 0.003 µM): 1.89
relative viability (Omipalisib + Luminespib; first compound 0.03 µM): 0.652
relative viability (Omipalisib + Palbociclib; first compound 0.0003 µM): 1.01
relative viability (Omipalisib + Palbociclib; first compound 0.003 µM): 0.823
relative viability (Omipalisib + Palbociclib; first compound 0.03 µM): 0.532
relative viability (Omipalisib; 0.0003 µM): 0.838
relative viability (Omipalisib; 0.003 µM): 0.912
relative viability (Omipalisib; 0.03 µM): 0.694

NCI-H1299
relative viability (Omipalisib + Olaparib; first compound 0.0003 µM): 1.05
relative viability (Omipalisib + Olaparib; first compound 0.003 µM): 1.01
relative viability (Omipalisib + Olaparib; first compound 0.03 µM): 0.902
relative viability (Omipalisib + Pictilisib; first compound 0.0003 µM): 0.778
relative viability (Omipalisib + Pictilisib; first compound 0.003 µM): 0.612
relative viability (Omipalisib + Pictilisib; first compound 0.03 µM): 0.624
relative viability (Omipalisib + Lapatinib; first compound 0.0003 µM): 1.01
relative viability (Omipalisib + Lapatinib; first compound 0.003 µM): 0.994
relative viability (Omipalisib + Lapatinib; first compound 0.03 µM): 1.02
relative viability (Omipalisib + Bortezomib; first compound 0.0003 µM): 1.03
relative viability (Omipalisib + Bortezomib; first compound 0.003 µM): 1.08
relative viability (Omipalisib + Bortezomib; first compound 0.03 µM): 1.12
relative viability (Omipalisib + Foretinib; first compound 0.0003 µM): 1.13
relative viability (Omipalisib + Foretinib; first compound 0.003 µM): 1.17
relative viability (Omipalisib + Foretinib; first compound 0.03 µM): 1.12
relative viability (Omipalisib + Linsitinib; first compound 0.0003 µM): 0.95
relative viability (Omipalisib + Linsitinib; first compound 0.003 µM): 1.01
relative viability (Omipalisib + Linsitinib; first compound 0.03 µM): 0.909
relative viability (Omipalisib + Crizotinib; first compound 0.0003 µM): 0.986
relative viability (Omipalisib + Crizotinib; first compound 0.003 µM): 1.03
relative viability (Omipalisib + Crizotinib; first compound 0.03 µM): 0.967
relative viability (Omipalisib + Navitoclax; first compound 0.0003 µM): 1.09
relative viability (Omipalisib + Navitoclax; first compound 0.003 µM): 1.05
relative viability (Omipalisib + Navitoclax; first compound 0.03 µM): 1.05
relative viability (Omipalisib + Alpelisib; first compound 0.0003 µM): 1.12
relative viability (Omipalisib + Alpelisib; first compound 0.003 µM): 1.13
relative viability (Omipalisib + Alpelisib; first compound 0.03 µM): 1.06
relative viability (Omipalisib; 0.0003 µM): 1.06
relative viability (Omipalisib; 0.003 µM): 1.1
relative viability (Omipalisib; 0.03 µM): 1.02
